In US10336762B2 (priority 2017, dated 2019):
Like-named read-outs stand apart in the source and are kept apart here.

Experiments:
TNFα = test: cells; format: cell-based, human; settings: Homo sapiens, Monocyte, LPS-stimulated human monocytes, read-out: EC50 TNF
IRAK4 enzyme = IRAK4 enzyme (Homo sapiens (Human), UniProt Q9NWZ3); test: biochemical; format: biochemical; settings: IRAK4 enzyme, 500 μM ATP
Chain of IRAK4 enzyme (Q9NWZ3 whole entry): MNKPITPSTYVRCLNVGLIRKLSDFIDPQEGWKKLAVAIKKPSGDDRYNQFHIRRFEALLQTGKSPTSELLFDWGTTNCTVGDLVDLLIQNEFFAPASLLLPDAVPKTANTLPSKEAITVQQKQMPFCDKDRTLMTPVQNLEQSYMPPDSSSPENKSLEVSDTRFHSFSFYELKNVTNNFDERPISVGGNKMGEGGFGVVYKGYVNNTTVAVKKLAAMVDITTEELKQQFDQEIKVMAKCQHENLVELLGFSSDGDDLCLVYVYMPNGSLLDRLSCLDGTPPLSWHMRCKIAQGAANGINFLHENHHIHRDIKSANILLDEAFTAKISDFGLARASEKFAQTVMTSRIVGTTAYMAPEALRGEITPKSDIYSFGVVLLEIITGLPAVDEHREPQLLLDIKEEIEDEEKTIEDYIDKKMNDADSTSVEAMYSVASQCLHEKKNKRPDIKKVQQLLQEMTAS

Compound | EC50 (TNFα; TNFα content) [µM] | IC50 (IRAK4 enzyme; TR-FRET (HTRF)) [µM] | IC50 (IRAK4 enzyme; TR-FRET) [µM] | EC50 (TNFα; TNFα by TR-FRET) [µM]
CC(C)(O)[C@H](F)CNC(=O)c1cnc(-c2ccc3cc(C#N)cnn23)cc1N[C@H]1C[C@](C)(O)C1 [Example 446, 6-(3-cyanopyrrolo[1,2-b]pyridazin-7-yl)-N-((R)-2-fluoro-3-hydroxy-3-methylbutyl)-4-(((1r,3R)-3-hydroxy-3-methylcyclobutyl)amino) nicotinamide] | 0.063 | 0.001 | – | –
CC(C)Nc1cc(-c2ccc3cc(C#N)cnn23)ncc1C(=O)NCCNS(C)(=O)=O [Example 88, 6-(3-cyanopyrrolo[1,2-b]pyridazin-7-yl)-4-(isopropyl-amino)-N-(2-(methylsulfonamido)ethyl) nicotinamide] | 0.209 | – | 0.003 | –
CC(=O)N[C@H]1CC[C@@H](Nc2cc(-c3ccc4cc(C#N)cnn34)ncc2C(=O)NC[C@@H](F)C(C)(C)O)CC1 [Example 320, 4-(((1s,4S)-4-acetamidocyclohexyl)amino)-6-(3-cyano-pyrrolo[1,2-b]pyridazin-7-yl)-N-((R)-2-fluoro-3-hydroxy-3-methylbutyl) nicotinamide] | 1.91 | – | 0.003 | –
CC(C)(C)OC(=O)NC12CCC(Nc3cc(-c4ccc5cc(C#N)cnn45)ncc3C(=O)NC[C@@H](F)C(C)(C)O)(CC1)CC2 [Example 304, (R)-tert-butyl (4-((2-(3-cyanopyrrolo[1,2-b]pyridazin-7-yl)-5-((2-fluoro-3-hydroxy-3-methylbutyl)carbamoyl)pyridin-4yl)amino)bicyclo[2.2.2]octan-1-yl)carbamate] | 0.677 | – | 0.004 | –
CNC(=O)O[C@H]1C[C@@](C)(Nc2cc(-c3ccc4cc(C#N)cnn34)ncc2C(=O)NC[C@@H](F)C(C)(C)O)C1 [Example 356] | 0.8 | – | 0.006 | –
Cc1nnc(Nc2cc(-c3ccc4cc(C#N)cnn34)ncc2C(=O)NC[C@@H](F)C(C)(C)O)s1 [Example 146, (R)-6-(3-cyanopyrrolo[1,2-b]pyridazin-7-yl)-N-(2-fluoro-3-hydroxy-3-methylbutyl)-4-((5-methyl-1,3,4-thiadiazol-2-yl)amino)nicotinamide] | 0.117 | – | 0.001 | –
CC(C)(O)[C@H](F)CNC(=O)c1cnc(-c2ccc3cc(C#N)cnn23)cc1N[C@H]1C[C@H](CNC(=O)C2(C(F)(F)F)CC2)C1 [Example 829, 6-(3-cyanopyrrolo[1,2-b]pyridazin-7-yl)-N-((R)-2-fluoro-3-hydroxy-3-methylbutyl)-4-(((1r,3R)-3-((1-(trifluoromethyl)cyclopropane-1-carboxamido)methyl)cyclobutyl)amino) nicotinamide] | – | – | < 0.001 | 0.023
CNC(=O)c1cnc(-c2ccc3cc(C#N)cnn23)cc1N[C@H]1CCC[C@@H](C(=O)NC)C1 [Example 470, 6-(3-cyanopyrrolo[1,2-b]pyridazin-7-yl)-N-methyl-4-(((1S,3R)-3-(methyl-carbamoyl)cyclohexyl)amino)nicotinamide] | 0.44 | 0.025 | – | –
CC(C)(O)[C@H](F)CNC(=O)c1cnc(-c2ccc3cc(C#N)cnn23)cc1NC1Cc2ccncc2C1 (single isomer, unassigned) [Example 676] | 0.081 | 0.001 | – | –
CC(C)(O)[C@H](F)CNC(=O)c1cnc(-c2ccc3cc(C#N)cnn23)cc1Nc1cnn(C2CNC2)c1 [Example 232, (R)-4-((1-(azetidin-3-yl)-1H-pyrazol-4-yl)amino)-6-(3-cyanopyrrolo[1,2-b]pyridazin-7-yl)-N-(2-fluoro-3-hydroxy-3-methylbutyl)nicotinamide] | 0.425 | – | 0.001 | –
COC(=O)NCC(C)(C)CNc1cc(-c2ccc3cc(C#N)cnn23)ncc1C(=O)NC[C@@H](F)C(C)(C)O [Example 718, (R)-methyl (3-((2-(3-cyano-pyrrolo[1,2-b]pyridazin-7-yl)-5-((2-fluoro-3-hydroxy-3-methylbutyl)carbamoyl)pyridin-4-yl)amino)-2,2-dimethylpropyl)carbamate] | 0.28 | 0.002 | – | –
